These results are taken from patent US20160136193A1, “TREATMENT OF SYMPTOMS ASSOCIATED WITH BACTERIAL VAGINOSIS” (IDH Holding ApS, priority 2003, published 2016).

The test system of data set [1] is Bacterial Vaginosis. As to conditions: cited from earlier work.
The subject of data set [2] is symptoms associated with bacterial vaginosis. Description: Treatment of a person with recurrent vaginal fishy-smelling secretions (Example 9). It is filed as in vivo, human. Conditions: after two 7-day treatments. How it is done: A person had suffered from discomfort and vaginal secretions of fishy smell recurring after two 7-day treatments with metronidazole. The vaginal pH was approximately 5.3, varying between 5.0 and 5.5.
A lactose suspension (1-3 ml) as prepared in Example 8 was instilled into the vagina twice daily. After approximately 24 hours the pH lowered to 4.7 and the fishy odor disappeared. Continuous application once a day further lowered the pH down to approximately 4.4. The treatment was continued for 4 days.
After 4 days symptoms such as the fishy odor recurred; however, the symptoms disappeared after one day of the treatment described above.

Regarding `CCC[C@@H]1C[C@@H](C(=O)N[C@@H]([C@H]2O[C@H](SC)[C@H](O)[C@@H](O)[C@H]2O)[C@H](C)Cl)N(C)C1` [Clindamycin], the side effects result in data set [1] (7-day treatment) is “less, though diarrhea is possible”.
Turning to `Cc1ncc([N+](=O)[O-])n1CCO` [Metronidazole], in data set [2], the “discomfort and vaginal secretions of fishy smell after treatment” value was “recurring”. The cure rate in data set [1] (7-day treatment, after 1 month) is given as 80-90%. Besides, the side effects entry in data set [1] (7-day treatment) is “nausea, abdominal cramps and a metallic taste”.
Lactobacillus acidophilus: the benefits in studies entry in data set [1] (alternative measures) is “have not demonstrated benefits”.
